Data published in patent publication US20120053053A1, “PYRIMIDINE DERIVATIVES AND THEIR USE AS HERBICIDES” (SYNGENTA CROP PROTECTION, LLC, priority 2009, published 2012).

Experiments:
Type in all cases: in vivo
[1] = tested on: Alopecurus myosuroides (ALOMY); experiment: Post-emergence biological efficacy (percentage damage); details: Alopecurus myosuroides, 312 h, evaluated after 13 days, 100=total damage, 0=no damage; for pest or weed control at 1000 g/ha: dose 1,000 g/ha
Procedure: (§1) Seeds of Alopecurus myosuroides (ALOMY), Setaria faberi (SETFA), Echinochloa crus-galli (ECHCG), Solanum nigrum (SOLNI), Amaranthus retoflexus (AMARE) and Ipomea hederaceae (IPOHE) were sown in standard soil in pots. After cultivation for 8 days under controlled conditions in a glasshouse (at 24/16° C., day/night; 14 hours light; 65% humidity), the plants were sprayed with an aqueous spray solution derived from the formulation of the technical active ingredient in acetone/water (50:50) solution containing 0.5% Tween 20 (polyoxyethylene sorbitan monolaurate, CAS RN 9005-64-5) to give a final dose of 250 or 1000 g/ha of test compound. The test plants were then grown on under controlled conditions in a glasshouse (at 24/16° C., day/night; 14 hours light; 65% humidity) and watered twice daily. After 13 days the test was evaluated (100=total damage to plant; 0=no damage to plant).

[2] = tested on: Amaranthus retoflexus (AMARE); experiment: as above; details: Amaranthus retroflexus, 312 h, evaluated after 13 days, 100=total damage, 0=no damage; for pest or weed control at 1000 g/ha: dose 1,000 g/ha
Procedure: as §1

Setaria faberi (SETFA) [3] = experiment: as above; details: Setaria faberi, 312 h, evaluated after 13 days, 100=total damage, 0=no damage; for pest or weed control at 1000 g/ha: dose 1,000 g/ha
Procedure: as §1

Solanum nigrum (SOLNI) [4] = experiment: as above; details: Solanum nigrum, 312 h, evaluated after 13 days, 100=total damage, 0=no damage; for pest or weed control at 1000 g/ha: dose 1,000 g/ha
Procedure: as §1

[5] = tested on: Ipomea hederaceae (IPOHE); experiment: as above; details: Ipomoea hederacea, 312 h, evaluated after 13 days, 100=total damage, 0=no damage; for pest or weed control at 1000 g/ha: dose 1,000 g/ha
Procedure: as §1

[6] = tested on: Echinochloa crus-galli (ECHCG); experiment: as above; details: Echinochloa crus-galli, 312 h, evaluated after 13 days, 100=total damage, 0=no damage; for pest or weed control at 1000 g/ha: dose 1,000 g/ha
Procedure: as §1

[7] = tested on: Alopecurus myosuroides (ALOMY); experiment: Pre-emergence biological efficacy (percentage damage); details: Alopecurus myosuroides, 312 h, evaluated after 13 days, 100=total damage, 0=no damage; for pest or weed control at 1000 g/ha: dose 1,000 g/ha
Procedure: (§2) Seeds of Alopecurus myosuroides (ALOMY), Setaria faberi (SETFA), Echinochloa crus-galli (ECHCG), Solanum nigrum (SOLNI), Amaranthus retoflexus (AMARE) and Ipomea hederaceae (IPOHE) were sown in standard soil in pots. After cultivation for one day under controlled conditions in a glasshouse (at 24/16° C., day/night; 14 hours light; 65% humidity), the plants were sprayed with an aqueous spray solution derived from the formulation of the technical active ingredient in acetone/water (50:50) solution containing 0.5% Tween 20 (polyoxyethylene sorbitan monolaurate, CAS RN 9005-64-5) to give a final dose of 250 or 1000 g/ha of test compound. The test plants were then grown under controlled conditions in the glasshouse (at 24/16° C., day/night; 14 hours light; 65% humidity) and watered twice daily. After 13 days the test was evaluated (100=total damage to plant; 0=no damage to plant).

[8] = tested on: Amaranthus retoflexus (AMARE); experiment: as above; details: Amaranthus retroflexus, 312 h, evaluated after 13 days, 100=total damage, 0=no damage; for pest or weed control at 1000 g/ha: dose 1,000 g/ha
Procedure: as §2

Setaria faberi (SETFA) [9] = experiment: as above; details: Setaria faberi, 312 h, evaluated after 13 days, 100=total damage, 0=no damage; for pest or weed control at 1000 g/ha: dose 1,000 g/ha
Procedure: as §2

Solanum nigrum (SOLNI) [10] = experiment: as above; details: Solanum nigrum, 312 h, evaluated after 13 days, 100=total damage, 0=no damage; for pest or weed control at 1000 g/ha: dose 1,000 g/ha
Procedure: as §2

[11] = tested on: Ipomea hederaceae (IPOHE); experiment: as above; details: Ipomoea hederacea, 312 h, evaluated after 13 days, 100=total damage, 0=no damage; for pest or weed control at 1000 g/ha: dose 1,000 g/ha
Procedure: as §2

[12] = tested on: Echinochloa crus-galli (ECHCG); experiment: as above; details: Echinochloa crus-galli, 312 h, evaluated after 13 days, 100=total damage, 0=no damage; for pest or weed control at 1000 g/ha: dose 1,000 g/ha
Procedure: as §2

| SMILES | pest or weed control at 1000 g/ha [1] [%] | pest or weed control at 1000 g/ha [2] [%] | pest or weed control at 1000 g/ha (Setaria faberi (SETFA) [3]) [%] | pest or weed control at 1000 g/ha (Solanum nigrum (SOLNI) [4]) [%] | pest or weed control at 1000 g/ha [5] [%] | pest or weed control at 1000 g/ha [6] [%] | pest or weed control at 1000 g/ha [7] [%] | pest or weed control at 1000 g/ha [8] [%] | pest or weed control at 1000 g/ha (Setaria faberi (SETFA) [9]) [%] | pest or weed control at 1000 g/ha (Solanum nigrum (SOLNI) [10]) [%] | pest or weed control at 1000 g/ha [11] [%] | pest or weed control at 1000 g/ha [12] [%] | also measured |
| --- | --- | --- | --- | --- | --- | --- | --- | --- | --- | --- | --- | --- | --- |
| C=Cc1c(N)nc(SC)nc1C(=O)OC [Compound 62-61, 4-amino-5-ethenyl-6-methoxycarbonyl-2-methylthiopyrimidine] | 0 | 100 | 10 | 90 | 90 | 0 | 0 | 100 | 0 | 100 | 100 | 0 | – |
| C=Cc1c(N)nc(-c2ccc(F)cc2)nc1C(=O)OC [Compound 41-61, 4-Amino-5-ethenyl-2-(4-fluorophenyl)-6-methoxycarbonyl-pyrimidine] | 20 | 100 | 10 | 90 | 60 | 10 | 20 | 100 | 10 | 0 | 40 | 10 | – |
| COC(=O)c1nc(C2CC2)nc(N)c1C=C(C)C [Compound 2-69, 4-Amino-2-cyclopropyl-6-methoxycarbonyl-5-(2-methylprop-1-enyl)-pyrimidine] | 10 | 20 | 10 | 80 | 70 | 0 | 10 | 100 | 0 | 90 | 70 | 0 | – |
| CCC/C=C/c1c(N)nc(C2CC2)nc1C(=O)OC [Compound 2-65, 4-Amino-2-cyclopropyl-6-methoxycarbonyl-5-(pent-1-enyl)-pyrimidine] | – | – | – | – | – | – | – | – | – | – | – | – | pest or weed control at 250 g/ha ([1]; dose 250 g/ha): 0%; pest or weed control at 250 g/ha ([2]; dose 250 g/ha): 20%; pest or weed control at 250 g/ha (Setaria faberi (SETFA) [3]; dose 250 g/ha): 0%; pest or weed control at 250 g/ha (Solanum nigrum (SOLNI) [4]; dose 250 g/ha): 40%; pest or weed control at 250 g/ha ([5]; dose 250 g/ha): 40%; pest or weed control at 250 g/ha ([6]; dose 250 g/ha): 0%; pest or weed control at 250 g/ha ([7]; dose 250 g/ha): 0%; pest or weed control at 250 g/ha ([8]; dose 250 g/ha): 0%; pest or weed control at 250 g/ha (Setaria faberi (SETFA) [9]; dose 250 g/ha): 0%; pest or weed control at 250 g/ha (Solanum nigrum (SOLNI) [10]; dose 250 g/ha): 0%; pest or weed control at 250 g/ha ([11]; dose 250 g/ha): 0%; pest or weed control at 250 g/ha ([12]; dose 250 g/ha): 0% |
| COC(=O)c1nc(-c2ccc(Cl)c(OC)c2F)nc(N)c1C [Compound 27-41] | 30 | 100 | 80 | 80 | 60 | 50 | 30 | 50 | 10 | 80 | 90 | 20 | – |
| C=Cc1c(OC)nc(C2CC2)nc1C(=O)OC [Compound 2-398, 2-Cyclopropyl-5-ethenyl-4-methoxy-6-methoxy-carbonyl-pyrimidine] | 0 | 90 | 0 | 80 | 90 | 0 | 0 | 90 | 0 | 90 | 100 | 0 | – |
